Laboratory results from patent EP0126012B1, “Pharmaceutical compositions containing symmetrical disulfides” (SANOFI S.A., priority 1983, dated 1984).

How the values were obtained:
[1] = test system: globules rouges des drépanocytaires; assay: Inhibition of sickling of human erythrocytes from sickle-cell patients under deoxygenation (Nomarski microscopy); format: cell-based, humains; details: inhibition de la falciformation des érythrocytes; incubation 1 h at 37°C, pH 7,40, with product; molar ratio produit/hémoglobine initially 0,5 to 20; ratio used for the table values not given
Protocol: L'inhibition de la falciformation des érythrocytes humains a été évaluée selon la méthode consistant à laver et incuber dans un tampon salin (pH 7,40 - 0,15 M), les globules rouges des drépanocytaires pendant une heure à 37°C dans un bainmarie sous agitation circulaire en présence du produit ci-dessus à différentes concentrations. Dans cette opération le rapport molaire produit/hémoglobine est testé initialement dans l'intervalle allant de 0,5 à 20. En fonction des résultats obtenus, ce rapport est modifié. A la fin de l'incubation, l'excès de produit est enlevé par lavage. La suspension cellulaire ajustée à un hématocrite de 5 % est transférée dans un Erlenmeyer et incubée à 37°C sous un courant d'un mélange humidifié d'azote et d'oxygène. La concentration d'oxygène est réglée par une pompe à mélange gazeux. Le gaz effluent est transféré dans un autre tube contenant du formaldéhyde. A la fin de l'incubation, la suspension cellulaire est transférée dans le formaldéhyde par simple retournement de la fiole.
La proportion des cellules déformées et de celles ayant les caractéristiques de drépanocytes (présentant deux prolongements filiformes) est évaluée à l'aide d'un microscope ayant une optique interférentielle de NOMARSKY. L'inhibition de la falciformation a été calculée selon la formule suivante: • % cellules falciformées - % cellules falciformées en témoins présence de la drogue % cellules falciformées du témoin

falciformation = details: literature (Inserm Symposium 1979); cited from earlier work

Row | Structure (SMILES) | % inhibition [1] [%] | inhibition de la falciformation (falciformation)
1 | c1c[nH]c(SSc2ncc[nH]2)n1 [2,2'-dithiodi(1H-imidazole)] | 80 | 
2 | C1CSC(SSC2=NCCS2)=N1 [2,2'-dithiodi(4,5-dihydrothiazole)] | 90 | 
3 | c1cnc(SSc2ncccn2)nc1 [2,2'-dithiodipyrimidine] | 50 | 
4 | c1nc(SSc2nc[nH]n2)n[nH]1 [3,3'-dithiodi(1H-1,2,4-triazole)] | 100 | 
5 | NCCSSCCN [cystamine, reference compound] | 33 | particulièrement active
6 | NC(=O)CSSCC(N)=O [dithio-diacétamide] | 80 | 
7 | CN(C)C(=O)CSSCC(=O)N(C)C [dithiodi(N,N-diméthyl)acétamide] | 95 | 
8 | N=C(N)SSC(=N)N [dithiodiformamidine] | 100 | 
